test system: HIV; assay: not given; settings: cell-free and cell-mediated; literature; cited from earlier work

Row | SMILES | inhibiting HIV infection
1 | CC(=O)CC(c1ccccc1)c1c(O)c2ccccc2oc1=O (stereo not drawn) [Warfarin, 3-(α-acetonylbenzyl)-4-hydroxycoumarin] | inhibiting cell-free and cell-mediated HIV infection

biological target: T1, HIV-1 Protease (Human immunodeficiency virus type 1 group M subtype B, UniProt P04585); assay: HIV Protease Inhibition Assay (HPLC of undecapeptide substrate hydrolysis); assay type: biochemical; settings: 40 μM substrate, 37° C., 5 minutes, pH 4.7, 2% DMSO; read-out: 50% INHIBITION CONCENTRATION
T1 construct: HIV-1 Protease: The enzyme is obtained from Bachem Bioscience Inc; purchased Bachem Bioscience Inc
Description: The biological activity of the subject compounds was determined in an HIV Protease Inhibition Assay.
DTT Buffer: 1.0 mM dithiothreitol (DTT) was prepared fresh daily in 0.1% polyethylene glycol (mw 8000) 80 mM NaOAc, 160 mM NaCl, 1.0 mM EDTA, and brought to pH 4.7 with HCl.
HIV-1 Protease: The enzyme is obtained from Bachem Bioscience Inc. The undiluted enzyme is thawed from -80° C. and diluted 50-fold with DTT buffer. The solution is always kept at 0° C. on ice water and used in the experiment within 20 minutes after thawing.
Ensyme Substrates: Substrate III from Bachem Bioscience Inc. is the undecapeptide H-His-Lys-Ala-Arg-Val-Leu-p-Nitrophenylalanine-Glu-Ala-Norleucine-Ser-NH2 (>97% purity). A 200 μM stock solution in DTT buffer is prepared and stored on ice. Substrate solution is prepared fresh daily.
Test Compound: 10 mM inhibitor (I) in dimethyl sulfoxide (DMSO) is diluted to 200 μM with DTT buffer. From the 200 μM stock solution is made a 10 μM stock solution with 2% DMSO in DTT buffer. The two inhibitor solutions are used to make final I!=100, 50, 20, 10, 5, 2, 1, 0.5 and 0 μM with 2% DMSO in DTT buffer in each reaction well (total inhibitor volume of 50 μl).
To each reaction well is added 20 μl of substrate (final concentration of 40 μM), 50 μl of inhibitor (at a concentration such that final dilution will produce the test concentration) and 20 μl of DTT buffer. The reaction plate (96 wells) is incubated at 37° C. for at least 5 minutes.
10 μl of the diluted protease is added to the reaction well while the reaction plate is shaking. Once shaken for 10 seconds, the plate is returned to the heating block at 37° C. (final reaction volume 100 μl.)
The reaction is incubated for 5 minutes at 37° C. The reaction is stopped by placing the reaction plate on the shaker and adding 20 μl of 10% trifluoroacetic acid (TFA) and shaking for 10 seconds. The amount of proteolysis is then determined by separation of noncleaved substrate and two cleaved products with reverse-phase HPLC, while measuring absorbance at 220 nm to determine the relative peak areas of the three components. The relative peak areas are used to calculate % conversion to product as a function of inhibitor concentration. The data is plotted as % Control (the ratio of % conversion is the presence and absence of inhibitor×100) versus inhibitor concentration and fit with the equation Y=100/1+(X/IC50)^A, where IC50 is the inhibitor concentration at 50% inhibition and A is the slope of the inhibition curve.

Row | SMILES | IC50 [nM]
2 | O=c1oc2c(c(O)c1SCc1ccccc1)Cc1ccccc1-2 [Example 1, 4-Hydroxy-3-(phenylmethyl)thio!-indeno 1,2-b!pyran-2(5H)-one] | 1300
3 | O=c1oc2c(c(O)c1SCc1ccccc1)Cc1ccc(O)cc1-2 [Example 3, 4,8-Dihydroxy-3-(phenylmethyl)thio!-indeno 1,2-b!pyran-2(5H)-one] | 700
4 | O=c1oc2c(c(O)c1SCc1ccccc1)CCc1ccccc1-2 [Example 4, 5,6-Dihydro-4-hydroxy-3-(phenylmethyl)thio!-2H-naphtho 1,2-b!pyran-2-one] | 1400
5 | Cc1cc(C)c2c(c1)-c1oc(=O)c(SCc3ccccc3)c(O)c1CC2 [Example 6, 5,6-Dihydro-4-hydroxy-7,9-dimethyl-3-(phenylmethyl)thio!-2H-naphtho 1,2-b! pyran-2-one] | 2000
6 | O=c1oc2c(c(O)c1SCc1ccccc1)CCc1cc(O)ccc1-2 [Example 9, 5,6-Dihydro-4,8-dihydroxy-3-(phenylmethyl)thio! -2H-naphtho 1,2-b !pyran-2-one] | 2500
7 | O=c1oc2c(c(O)c1SCc1ccccc1)Cc1ccc(OCc3ccccc3)cc1-2 [Example 11, 4-Hydroxy-8-(phenylmethoxy)-3-(phenylmethyl)thio!indeno 1,2-b!pyran-2(5H)-one] | 2200
8 | O=c1oc2c(c(O)c1SCc1ccccc1)COc1ccccc1-2 [Example 14, 4-Hydroxy-3-(phenylmethyl)thio!-2H,5H-pyrano 3,2-c! 1!bensopyran-2-one] | 4000
9 | O=c1oc2c(c(O)c1SCCc1ccccc1)Cc1ccccc1-2 [Example 16, 4-Hydroxy-3-(2-phenylethyl)thio!indeno 1,2-b!pyran-2(5H)-one] | 3500
10 | O=c1oc2c(c(O)c1SCc1ccccc1)CSc1ccccc1-2 [Example 25, 4-Hydroxy-3-(phenylmethyl)thio!-2H,5H-1!bensothiopyrano 4,3-b!pyran-2-one] | 1300
11 | O=C(O)COc1ccc2c(c1)-c1oc(=O)c(SCc3ccccc3)c(O)c1C2 [Example 29, 2,5-Dihydro-4-hydroxy-2-oxo-3-(phenylmethyl)thio!indeno 1,2-b!pyran-8 !oxy!-acetic acid] | 1400

Reference: patent publication US5504104A, “Tricyclic pyrone derivatives as protease inhibitors and antiviral agents” (Warner-Lambert Company, priority 1993, dated 1996)
